In US20180099937A1, “NOVEL ARYL-CYANOGUANIDINE COMPOUNDS” (Bayer Pharma Aktiengesellschaft, priority 2015, published 2018):

Molecular target: SMYD2 (Homo sapiens, UniProt Q9NRG4)
Assay: Scintillation Proximity Assay (SPA) for detection of SMYD2 enzymatic inhibition
Assay type: biochemical
Set-up: The SMYD2 full length enzyme was produced in-house by expression (with an N-terminal 6× His tag) in E. coli; 6xHis (N); made in house; host or cells: E. coli
Conditions: SMYD2 full length enzyme, p53 Peptide substrate 1.0 μM, 3H-SAM 60 nM; read-out: IC50 [mol/l] (SPA Assay)
Text: 1.1 Scintillation Proximity Assay (SPA) for Detection of SMYD2 Enzymatic Inhibition
SMYD2 inhibitory activities of the compounds described in the present invention were quantified using a scintillation proximity assay (SPA) which measures methylation by the enzyme of the synthetic, biotinylated peptide Btn-Ahx-[…]—Amid×TFA (Biosyntan) derived from p53 and referred to from here on as “p53 Peptide”. The SMYD2 full length enzyme was produced in-house by expression (with an N-terminal 6× His tag) in E. coli and purification by affinity chromatography on a Ni-NTA Sepharose column followed by a size exclusion chromatography step on a Superdex 200 16/60 column (GE Healthcare).
In a typical assay 11 different concentrations of each compound (0.1 nM, 0.33 nM, 1.1 nM, 3.8 nM, 13 nM, 44 nM, 0.15 μM, 0.51 μM, 1.7 μM, 5.9 μM and 20 μM) were tested in duplicate within the same microtiter plate. To this end, 100-fold concentrated compound solutions (in DMSO) were previously prepared by serial dilution (1:3.4) of 2 mM stocks in a clear low volume 384-well source microliter plate (Greiner Bio-One), from which 50 nl of compound solutions were transferred into a white low volume test microtiter plate from the same supplier. Subsequently, 2.5 μl SMYD2 in aqueous assay buffer [50 mM Tris/HCl pH 9.0 (AppliChem), 1 mM dithiothreitol (DTT, Sigma), 0.01% (w/v) bovine serum albumine (BSA, Sigma), 0.0022% (v/v) Pluronic (Sigma)] were added to the compounds in the test plate to a final enzyme concentration of —typically—3 nM (this parameter was adjusted depending on the activity of the enzyme lot in order to be within the linear dynamic range of the assay). The samples were then incubated for 15 min at 22° C. to allow pre-equilibration of the putative enzyme-inhibitor complexes before the start of the methylation reaction, which was initiated by the addition of 2.5 μl 2-fold concentrated solution (in assay buffer) of titriated S-Adenosyl-L-Methionine (3H-SAM, Perkin Elmer, final concentration: 60 nM) and p53 Peptide substrate (final concentration: 1.0 μM). The resulting mixture (5 μl final volume) was shortly centrifuged (2 min., 1500 rpm) and incubated at 22° C. during 30 min. Thereupon the reaction was stopped by adding 3 μl of Streptavidin PS SPA imaging beads (Perkin Elmer, final concentration of 3.12 μg/μl) and “cold” SAM (AK Scientific, 25 μM final concentration) for non-specific binding reduction. Plates containing the stopped reaction were sealed with transparent adhesive foil (Perkin Elmer), centrifuged (2 min., 1500 rpm), and further incubated for —at least—1 h at RT (or overnight at 4° C.) in order to allow the SPA signals to develop. Subsequently, the amount of product was evaluated by measuring the energy transfer from the β-particles emitted by the 3H-labeled substrate to the Europium scintillator co-polymerized in the polystyrene matrix of the PS imaging beads, using the standard settings for this purpose of a Viewlux (Perkin-Elmer) CCD plate imaging device (emission filter 613/55 (IFP). The resulting scintillation counts were taken as indicator for the amount of methylated peptide per well. The data were normalised using two sets of control wells (typically 16 each) for high−(=enzyme reaction with DMSO instead of test compound=0% =Minimum inhibition) and low−(=all assay components without enzyme=100% =Maximum inhibition) SMYD2 activity. IC50 values were calculated by fitting the normalized inhibition data to a 4-parameter logistic equation using the “Screener” analysis software from Genedata.

SMYD2, sequence (Q9NRG4 whole entry): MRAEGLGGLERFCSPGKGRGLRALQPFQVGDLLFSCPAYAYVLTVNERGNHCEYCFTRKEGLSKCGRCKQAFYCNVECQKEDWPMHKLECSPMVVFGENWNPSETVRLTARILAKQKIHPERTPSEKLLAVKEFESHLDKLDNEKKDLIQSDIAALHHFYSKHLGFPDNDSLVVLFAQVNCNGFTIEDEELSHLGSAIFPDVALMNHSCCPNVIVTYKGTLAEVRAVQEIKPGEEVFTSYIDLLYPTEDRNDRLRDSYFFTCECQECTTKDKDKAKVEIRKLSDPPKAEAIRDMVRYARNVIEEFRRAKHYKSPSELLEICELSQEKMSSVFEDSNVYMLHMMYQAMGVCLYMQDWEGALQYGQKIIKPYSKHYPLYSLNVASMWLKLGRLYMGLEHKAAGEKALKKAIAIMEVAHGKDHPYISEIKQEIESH

Row | Structure (SMILES) | IC50
1 | CCN(C(=O)[C@H]1C[C@@H](F)CN1)C1CN(/C(=N\C#N)Nc2cccc(OC(F)F)c2)N=C1c1ccc(Cl)c(Cl)c1 (mixture of isomers) [Example 4, (4R)-N-[1-{N′-Cyano-N-[3-(difluoromethoxy)phenyl]carbamimidoyl}-3-(3,4-dichlorophenyl)-4,5-dihydro-1H-pyrazol-4-yl]-N-ethyl-4-fluoro-D-prolinamide] | 85.2 nM
2 | CC1(C)CN[C@@H](C(=O)NC2CN(/C(=N\C#N)Nc3cccc(OC(F)F)c3)N=C2c2ccc(Cl)c(Cl)c2)C1 (mixture of isomers) [Example 7, N-[1-{N′-Cyano-N-[3-(difluoromethoxy)phenyl]carbamimidoyl}-3-(3,4-dichlorophenyl)-4,5-dihydro-1H-pyrazol-1-yl]-4,4-dimethyl-D-prolinamide] | 490 nM
3 | CCN(C(=O)[C@H]1C[C@@H](O)CN1)C1CN(/C(=N\C#N)Nc2cccc(OC(F)F)c2F)N=C1c1ccc(Cl)c(Cl)c1 (mixture of isomers) [Example 14, (4R)-N-[1-{N′-Cyano-N-[3-(difluoromethoxy)-2-fluorophenyl]carbamimidoyl}-3-(3,4-dichlorophenyl)-4,5-dihydro-1H-pyrazol-4-yl]-N-ethyl-4-hydroxy-D-prolinamide] | 79.8 nM
4 | CCN(C(=O)[C@H]1CCCN1)C1CN(/C(=N\C#N)Nc2ccc(F)c(OC(F)F)c2)N=C1c1ccc(Cl)c(Cl)c1 (mixture of isomers) [Example 15, N-[1-{N′-Cyano-N-[3-(difluoromethoxy)-4-fluorophenyl]carbamimidoyl}-3-(3,4-dichlorophenyl)-4,5-dihydro-1H-pyrazol-4-yl]-N-ethyl-D-prolinamide] | 24.4 nM
5 | CCN(C(=O)[C@H]1C[C@@H](O)CN1)C1CN(/C(=N\C#N)Nc2ccc(F)c(OC(F)F)c2)N=C1c1ccc(Cl)c(Cl)c1 (mixture of isomers) [Example 16, (4R)-N-[1-{N′-Cyano-N-[3-(difluoromethoxy)-4-fluorophenyl]carbamimidoyl}-3-(3,4-dichlorophenyl)-4,5-dihydro-1H-pyrazol-4-yl]-N-ethyl-4-hydroxy-D-prolinamide] | 111 nM
6 | CCN(C(=O)[C@H]1CCCN1)C1CN(/C(=N\C#N)Nc2cccc(OC(F)(F)F)c2)N=C1c1ccc(Cl)c(Cl)c1 (mixture of isomers) [Example 17, N-[1-{N′-Cyano-N-[3-(trifluoromethoxy)phenyl]carbamimidoyl}-3-(3,4-dichlorophenyl)-4,5-dihydro-1H-pyrazol-4-yl]-N-ethyl-D-prolinamide] | 116 nM
7 | CCN(C(=O)[C@H]1CCCN1)C1CN(/C(=N\C#N)Nc2cc(OC(F)(F)F)ccc2OC)N=C1c1ccc(Cl)c(Cl)c1 (mixture of isomers) [Example 19, N-[1-{N′-Cyano-N-[2-methoxy-5-(trifluoromethoxy)phenyl]carbamimidayl}-3-(3,4-dichlorophenyl)-4,5-dihydro-1H-pyrazol-4-yl]-N-ethyl-D-prolinamide] | 17.2 nM
8 | CCN(C(=O)[C@H]1C[C@@H](O)CN1)C1CN(/C(=N\C#N)Nc2cc(OC(F)(F)F)ccc2OC)N=C1c1ccc(Cl)c(Cl)c1 (mixture of isomers) [Example 20, (4R)-N-[1-{N′-Cyano-N-[2-methoxy-5-(trifluoromethoxy)phenyl]carbamimidayl}-3-(3,4-dichlorophenyl)-4,5-dihydro-1H-pyrazol-4-yl]-N-ethyl-1-hydroxy-D-prolinamide] | 22.4 nM
9 | CCN(C(=O)[C@H]1CCCN1)C1CN(/C(=N\C#N)Nc2cccc(OC(F)(F)F)c2F)N=C1c1ccc(Cl)c(Cl)c1 (mixture of isomers) [Example 21, N-[1-{N′-Cyano-N-[2-fluoro-3-(trifluoromethoxy)phenyl]carbamimidoyl}-3-(3,4-dichlorophenyl)-4,5-dihydro-1H-pyrazol-4-yl]-N-ethyl-D-prolinamide] | 50.5 nM
10 | CCN(C(=O)[C@H]1CCCN1)C1CN(/C(=N\C#N)Nc2ccc(F)c(OC(F)(F)F)c2)N=C1c1ccc(Cl)c(Cl)c1 (mixture of isomers) [Example 22, N-[1-{N′-Cyano-N-[4-fluoro-3-(trifluoromethoxy)phenyl]carbamimidoyl}-3-(3,4-dichlorophenyl)-4,5-dihydro-1H-pyrazol-4-yl]-N-ethyl-D-prolinamide] | 50.6 nM
11 | CCN(C(=O)[C@H]1CCN1)C1CN(/C(=N\C#N)Nc2cc(F)cc(OC(F)(F)F)c2)N=C1c1ccc(Cl)c(Cl)c1 (mixture of isomers) [Example 23, (2R)-N-[1-{N′-Cyano-N-[3-fluoro-5-(trifluoromethoxy)phenyl]carbamimidoyl}-3-(3,4-dichlorophenyl)-4,5-dihydro-1H-pyrazol-4-yl]-N-ethylazetidine-2-carboxamide] | 43.2 nM
12 | CCN(C(=O)[C@H]1CCCN1)C1CN(/C(=N\C#N)Nc2cc(F)cc(OC(F)(F)F)c2)N=C1c1ccc(Cl)c(Cl)c1 (mixture of isomers) [Example 24, N-[1-{N′-Cyano-N-[3-fluoro-5-(trifluoromethoxy)phenyl]carbamimidoyl}-3-(3,4-dichlorophenyl)-4,5-dihydro-1H-pyrazol-4-yl]-N-ethyl-D-prolinamide] | 65.1 nM
13 | CCN(C(=O)[C@H]1CCCN1)C1CN(/C(=N\C#N)Nc2cc(OC(F)(F)F)ccc2F)N=C1c1ccc(Cl)c(Cl)c1 (mixture of isomers) [Example 26, N-[1-{N′-Cyano-N-[2-fluoro-5-(trifluoromethoxy)phenyl]carbamimidoyl}-3-(3,4-dichlorophenyl)-4,5-dihydro-1H-pyrazol-4-yl]-N-ethyl-D-prolinamide] | 61.3 nM
14 | CCN(C(=O)[C@H]1CCCN1)C1CN(/C(=N\C#N)Nc2cc(C(F)(F)F)ccc2OC)N=C1c1ccc(Cl)c(Cl)c1 (mixture of isomers) [Example 27, N-[1-{N′-Cyano-N-[2-methoxy-5-(trifluoromethyl)phenyl]carbamimidoyl}-3-(3,4-dichlorophenyl)-4,5-dihydro-1H-pyrazol-4-yl]-N-ethyl-D-prolinamide] | 4.54 nM
15 | CCN(C(=O)[C@H]1C[C@@H](O)CN1)C1CN(/C(=N\C#N)Nc2cc(C(F)(F)F)ccc2OC(F)(F)F)N=C1c1ccc(Cl)c(Cl)c1 (mixture of isomers) [Example 29, (4R)-N-[1-{N′-Cyano-N-[2-(trifluoromethoxy)-5-(trifluoromethyl)phenyl]carbamimidoyl}-3-(3,4-dichlorophenyl)-4,5-dihydro-1H-pyrazol-4-yl]-N-ethyl-4-hydroxy-D-prolinamide] | 221 nM
16 | CCN(C(=O)[C@H]1CCCN1)C1CN(/C(=N\C#N)Nc2cc(C(F)(F)F)ccc2OC(F)(F)F)N=C1c1ccc(Cl)c(Cl)c1 (mixture of isomers) [Example 30, N-[1-{N′-Cyano-N-[2-(trifluoromethoxy)-5-(trifluoromethyl)phenyl]carbamimidoyl}-3-(3,4-dichlorophenyl)-4,5-dihydro-1H-pyrazol-4-yl]-N-ethyl-D-prolinamide] | 96.6 nM
17 | CCN(C(=O)[C@H]1CCCN1)C1CN(/C(=N\C#N)Nc2cccc(CC(F)(F)F)c2)N=C1c1ccc(Cl)c(Cl)c1 (mixture of isomers) [Example 31, N-[1-{N′-Cyano-N-[3-(2,2,2-trifluorelethyl)phenyl]carbamimidayl}-3-(3,4-dichlorophenyl)-4,5-dihydro-1H-pyrazol-4-yl]-N-ethyl-D-prolinamide] | 23.7 nM
18 | CCN(C(=O)[C@H]1CCCN1)C1CN(/C(=N\C#N)Nc2ccc(F)c(OC)c2)N=C1c1ccc(Cl)c(Cl)c1 (mixture of isomers) [Example 33, N-{1-[N′-Cyano-N-(4-fluoro-3-methoxyphenyl)carbamimidoyl]-3-(3,4-dichlorophenyl)-4,5-dihydro-1H-pyrazol-4-yl}-N-ethyl-D-prolinamide] | 103 nM
